“Also recorded” adds a separate entry of the source. Some results are limits rather than exact numbers.

In data set [1] the test system is P-glycoprotein (P-gp) and/or breast cancer resistance protein (BCRP). Particulars: cited from earlier work.
Data set [2] is described as follows: Metabolic stability in human hepatocytes. To be noted: for remaining at 0.5 min / remaining at 0.5 h / remaining at 1 h / remaining at 2 h: hepatocytes. As to the method:
Metabolic Stability in Hepatocytes (Independently Performed by Pharmaron Inc., Ninqbo, CN)
After thawing was complete, hepatocytes were transferred into a 50 mL conical tube containing thawing medium and the tube was then placed into a centrifuge and spun at 100 g for 10 min. […] Using AO/PI staining, cells were counted to determine the viable cell density. […] Subsequently, 2 μL of the 100 μM test compounds or control compound solutions was transferred into the respective wells of the 96-well non-coated plate to start the reaction. […] Aliquots of 100 μL of the supernatant were then diluted by 100 μL of ultra-pure water, and the mixture was analyzed by LC-MS/MS.
All calculations were carried out using Microsoft Excel. Peak areas were determined from extracted ion chromatograms. The in-vitro half-life (t1/2) of parent compound was determined by regression of the percent parent disappearance vs. time curve.

The next data set has as its target cSRC (Homo sapiens, UniProt P12931). The data set can be described thus: KinaseProfiler radiometric kinase assay, cSRC wt. Particulars: for IC50: [ATP] = 10 μM, mean of n = 2. Format: biochemical.
The next data set addresses T1, BCR-ABL1 M351T (Homo sapiens, UniProt P00519, M351T).
T1 construct: BCR (fusion partner, as the printed name BCR-ABL1 says)
The data set is described as follows: KinaseProfiler radiometric kinase assay, BCR-ABL1 M351T. Format: biochemical. To be noted: [ATP] = 10 μM; mean of n = 2.

The next data set deals with Caco-2 cells. The data set is described as follows: Caco-2 permeability. Particulars: Papp (b − a/a − b). As to the method: Caco-2 Permeability (Independently Performed by Pharmaron Inc., Ningbo, CN)
To each well of the Transwell insert and reservoir were added 50 μL and 25 mL of cell culture medium, respectively. […] Following this, the Caco-2 plate was removed from the incubator and the monolayer washed twice with pre-warmed HBSS (10 mM HEPES, pH 7.4).
To determine the rate of drug transport in the apical to basolateral direction, 125 μL of the working solution of either test compounds or control compounds was added to the Transwell insert (apical compartment) and a 50 μL sample was immediately transported from the apical compartment to 200 μL of acetonitrile containing internal standard (100 nM alprazolam, 200 nM Caffeine and 100 nM tolbutamide) in a new 96-well plate as the initial donor sample (A-B). The sample was then vortexed at 1,000 rpm for 10 min. The receiver plate (basolateral compartment) wells were then filled with 235 μL of transport buffer. To determine the rate of drug transport in the basolateral to apical direction, 285 μL of the working solution of either test compounds or control compounds was added to the receiver plate wells (basolateral compartment) and a 50 μL sample was immediately transferred from the basolateral compartment to 200 μL of acetonitrile containing internal standard in a new 96-well plate as the initial donor sample (B-A). The sample was vortexed at 1,000 rpm for 10 min. The Transwell insert (apical compartment) was then filled with 75 μL of transport buffer and the apical to basolateral direction and the basolateral to apical direction were done at the same time. […] After incubation, 50 μL samples from donor sides (apical compartment for Ap→BI flux, and basolateral compartment for BI→Ap) and receiver sides (basolateral compartment for Ap→BI flux, and apical compartment for BI→Ap) were transferred to wells of a new 96-well plate, followed by the addition of 200 μL acetonitrile containing internal standard. All samples were vortexed for 10 min and then centrifuged at 3,220 g for 40 min. A 150 μL aliquot of the supernatant was then mixed with an appropriate volume of ultra-pure water prior to LC-MS/MS analysis.
To monitor for monolayer integrity, Lucifer yellow leakage was determined after the 2 h transport period. This began by preparing a stock solution of Lucifer yellow in DMSO which was diluted with HBSS (10 mM HEPES, pH 7.4.) to reach a final concentration of 100 μM. To each Transwell insert (apical compartment) was then added 100 μL of the Lucifer yellow solution, followed by filling the wells in the receiver plate (basolateral compartment) with 300 μL of HBSS (10 mM HEPES, pH 7.4).
(§1) The efflux ratio was determined using the following equation: […]

Data set [3] is described as follows: Plasma protein binding by equilibrium dialysis, human plasma. The data set is classed as in vitro ADME. Particulars: human plasma; for % Unbound: 360 min, 5 µM. As for the experimental part: Plasma Protein Binding by Equilibrium Dialysis (Independently Performed by Pharmaron Inc., Ninqbo, CN)
Initially, 1 mM solutions of test compounds and the control compound (Ketoconzaole) were prepared in DMSO. After this, dialysis membranes were soaked in ultrapure water for 60 min to separate strips, followed by 20% aq. ethanol for 20 min, and finally in a dialysis buffer for 20 min. […] After this, 597 μL of blank plasma solution followed by 3 μL of the working solutions of either test compounds or control compound were added to a new plastic plate or separate plastic tube and the solutions were vortexed at 1,000 rpm for 2 min. Immediately after this, 50 μL of spiked plasma solution suspension was transferred to a 96-well plate to act as T=0 control. The remaining samples were treated in the same manner, whereby all remaining spiked plasma solutions were added to the incubator for the duration of the study.
Cells were then loaded with 120 μL of the plasma samples and dialyzed against an equal volume of dialysis buffer (PBS). […] At the end of incubation, the lid was removed and 50 μL of post-dialysis samples were removed from both buffer and plasma solution chambers into a separate 96-well plate for analysis. The plasma solutions (50 μL) were then added to the buffer samples along with an equal volume of PBS (50 μL) to the collected plasma solution samples. The plate was shaken at 1,000 rpm for 2 min and 400 μL of acetonitrile containing an appropriate internal standard was added to precipitate protein and release compound. The samples were then vortexed at 1,000 rpm for an additional 10 min followed by centrifugation at 3,220 g for 30 min. Supernatant (250 μL) was then added to a new 96-well plate and centrifuged again at 3,220 g for 30 min and 100 μL of this supernatant was then added to a new 96-well plate for analysis. The samples were analyzed by LC-MS/MS and 100 μL of distilled water was added to each sample prior to analysis.
Concentrations of test compounds and control compound in buffer and plasma solution chambers was determined and percentages of test compounds and control compound bound using the following equations (mean of n=2 replicates): […]

The target of another data set is mutant BCR-ABL1. The data set is described as follows: KinaseProfiler radiometric kinase assay, mutant BCR-ABL1 kinases as a group. The data set is classed as biochemical, human. The source says:
Biochemical Human RTK Kinase Enzymatic Radiometric Assay, KinaseProfiler (Independently Performed by Eurofins Cerep SA, FR)

Another data set addresses T2, BCR-ABL1 Q252H (Homo sapiens, UniProt P00519, Q252H).
T2 construct: BCR (fusion partner, as the printed name BCR-ABL1 says)
The data set is described as follows: KinaseProfiler radiometric kinase assay, BCR-ABL1 Q252H. The data set is classed as biochemical. Particulars: [ATP] = 10 μM; mean of n = 2.

The subject of another data set is MDCKII-MDR1 cells. The data set is described as follows: MDCKII-MDR1 permeability. Particulars: MDCKII-MDR1. As to the method:
MDCKII-MDR1 Permeability (Independently Performed By: Pharmaron Inc., Ninqbo, CN)
To each well of the Transwell insert and reservoir were added 50 μL and 25 mL of cell culture medium, respectively.
To determine the rate of drug transport in the apical to basolateral direction, 125 μL of the working solution of either test compounds or control compounds was added to the Transwell insert (apical compartment) and a 50 μL sample was immediately transferred from the apical compartment to 200 μL of acetonitrile containing internal standard (100 nM alprazolam, 200 nM caffeine, and 100 nM tolbutamide) in a new 96-well plate as the initial donor sample (A-B). The sample was then vortexed at 1,000 rpm for 10 min. The receiver plate (basolateral compartment) wells were then filled with 235 μL transport buffer. To determine the rate of drug transport in the basolateral to apical direction, 285 μL of the working solution of either test compounds or control compounds was added to the receiver plate (basolateral compartment) wells and a 50 μL of sample was immediately transferred from the basolateral compartment to 200 μL of acetonitrile containing internal standard in a new 96-well plate as the initial donor sample (B-A). The sample was vortexed for 10 min at 1,000 rpm. The Transwell insert (apical compartment) was then filled with 75 μL of transport buffer and the apical to basolateral direction and the basolateral to apical direction were done at the same time. […] After incubation, 50 μL samples from donor sides (apical compartment for Ap→BI flux, and basolateral compartment BI→Ap) and receiver sides (basolateral compartment for Ap→BI flux, and apical compartment for BI→Ap) were transferred to wells of a new 96-well plate, followed by the addition of 200 μL acetonitrile containing internal standard. […] An aliquot of 100 μL of the supernatant was mixed with an appropriate volume of ultra-pure water before LC-MS/MS analysis.
To monitor for monolayer integrity, Lucifer yellow leakage was determined after the 2 h transport period. This began by preparing a stock solution of Lucifer yellow in DMSO and diluted with HBSS (10 mM HEPES, pH 7.4.) to reach a final concentration of 100 μM. To each Transwell insert (apical compartment) was then added 100 μL of the Lucifer yellow solution, followed by filling the wells in the receiver plate (basolateral compartment) with 300 μL of HBSS (10 mM HEPES, pH 7.4).
as §1

The target in the next data set is hERG channel (Homo sapiens, UniProt Q12809). The arrangement: expressed in transfected cells; host or cells: HEK 293. Particulars: cited from earlier work.
Chain of hERG channel (Q12809 whole entry): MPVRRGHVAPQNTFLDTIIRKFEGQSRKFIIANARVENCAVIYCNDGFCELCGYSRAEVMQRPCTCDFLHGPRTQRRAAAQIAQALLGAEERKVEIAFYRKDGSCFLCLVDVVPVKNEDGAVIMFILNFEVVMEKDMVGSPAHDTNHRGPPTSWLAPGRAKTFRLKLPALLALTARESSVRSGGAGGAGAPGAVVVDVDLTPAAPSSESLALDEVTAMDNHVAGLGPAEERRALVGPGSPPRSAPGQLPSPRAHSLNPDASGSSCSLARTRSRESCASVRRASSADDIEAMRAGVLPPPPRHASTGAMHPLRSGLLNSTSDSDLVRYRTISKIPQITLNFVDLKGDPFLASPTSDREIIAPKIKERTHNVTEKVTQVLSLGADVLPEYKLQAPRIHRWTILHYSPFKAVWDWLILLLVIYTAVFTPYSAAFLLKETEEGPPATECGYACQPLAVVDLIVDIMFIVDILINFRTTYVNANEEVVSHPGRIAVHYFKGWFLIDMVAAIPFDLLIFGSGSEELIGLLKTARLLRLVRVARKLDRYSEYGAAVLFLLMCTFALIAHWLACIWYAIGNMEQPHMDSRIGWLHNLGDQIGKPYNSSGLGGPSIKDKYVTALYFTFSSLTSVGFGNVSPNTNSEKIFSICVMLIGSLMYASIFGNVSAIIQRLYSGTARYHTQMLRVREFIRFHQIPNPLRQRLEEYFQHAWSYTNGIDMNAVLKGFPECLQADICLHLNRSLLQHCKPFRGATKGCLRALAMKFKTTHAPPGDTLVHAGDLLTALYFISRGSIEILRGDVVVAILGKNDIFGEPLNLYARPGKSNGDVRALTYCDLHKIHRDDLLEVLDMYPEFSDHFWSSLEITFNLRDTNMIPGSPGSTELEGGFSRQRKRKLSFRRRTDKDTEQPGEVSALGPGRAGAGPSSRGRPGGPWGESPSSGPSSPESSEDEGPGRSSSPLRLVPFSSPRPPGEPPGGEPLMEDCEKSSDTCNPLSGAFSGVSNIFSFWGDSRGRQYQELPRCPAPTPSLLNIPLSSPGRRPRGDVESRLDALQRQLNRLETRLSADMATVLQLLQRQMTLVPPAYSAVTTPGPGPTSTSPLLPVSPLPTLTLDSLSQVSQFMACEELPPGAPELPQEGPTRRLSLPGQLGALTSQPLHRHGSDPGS
Data set [4] can be described thus: Metabolic stability in mouse hepatocytes. Format: in vitro ADME. To be noted: read-out: Remaining Percentages. As for the experimental part: All calculations were carried out using Microsoft Excel. Peak areas were determined from extracted ion chromatograms.

Chain of cSRC (P12931 whole entry): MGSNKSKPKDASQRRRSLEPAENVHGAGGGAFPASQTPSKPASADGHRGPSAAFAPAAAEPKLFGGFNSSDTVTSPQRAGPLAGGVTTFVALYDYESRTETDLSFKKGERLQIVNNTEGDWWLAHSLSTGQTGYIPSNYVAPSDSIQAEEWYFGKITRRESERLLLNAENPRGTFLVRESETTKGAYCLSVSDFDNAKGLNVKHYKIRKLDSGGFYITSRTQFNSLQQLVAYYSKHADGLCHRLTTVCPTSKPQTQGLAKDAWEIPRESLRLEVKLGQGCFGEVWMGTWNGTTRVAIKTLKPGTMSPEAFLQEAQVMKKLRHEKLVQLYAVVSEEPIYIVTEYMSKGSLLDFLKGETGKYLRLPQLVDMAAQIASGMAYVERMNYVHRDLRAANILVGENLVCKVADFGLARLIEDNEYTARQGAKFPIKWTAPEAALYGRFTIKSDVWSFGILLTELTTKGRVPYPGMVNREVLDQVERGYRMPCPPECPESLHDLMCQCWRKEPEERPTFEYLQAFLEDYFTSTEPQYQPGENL

On to `O=C(Nc1ccc(OC(F)(F)Cl)cc1)c1cnc(N2CC[C@@H](O)C2)c(-c2ccn[nH]2)c1` [Asciminib, asciminib], for which the “efflux transporter substrate (background)” value in [1] was “P-gp substrates; also recorded: potent substrates for efflux transporters”.

What is called amount remaining is what is left of the initial amount, in per cent. Consider `COc1cc2c(Nc3cccc(Cl)c3F)c(C#N)cnc2cc1OCCON1CCN(C)CC1` [Compound 16, 4-((3-Chloro-2-flurophenyl)amino)-6-methoxy-7-(2-((4-methylpiperazin-1-yl)oxy)ethoxy)quinoline-3-carbonitrile], for which, in [2], the fraction remaining at 0.5 min came out at 100%, the fraction remaining at 0.5 h was 66.9%, the fraction remaining at 1 h amounted to 45.1% and the share remaining at 2 h came out at 18.6%.

For the compound `COc1cc2c(Nc3cccc(OC)c3F)c(C#N)cnc2cc1OCCON1CCN(C)CC1` [Compound 18, 4-((2-Fluoro-3-methoxyphenyl)amino)-6-methoxy-7-(2-((4-methylpiperazin-1-yl)oxy)ethoxy)quinoline-3-carbonitrile], the IC50 at cSRC is 34 nM; on BCR-ABL1 M351T, 24 nM; on mutant BCR-ABL1 (read-out: IC50 against (imatinib resistant / relevant) mutant BCR-ABL1 kinases, group of mutants), no less than 15 nM; against BCR-ABL1 Q252H it was 30 nM. Also, in the data set with Caco-2 cells, the “Efflux Ratio” value is listed as 12.36. Also, the “% Unbound” value in [3] is 12.97%. For the same compound, the fraction remaining at 0.5 min in data set [2] is 100%. Further, the fraction remaining at 0.5 h in data set [2] worked out at 95.7%. In addition, the fraction remaining at 1 h in [2] was 80.4%. The amount remaining at 2 h in data set [2] is 54.9%.

In the case of `COc1cc(Nc2c(C#N)cnc3cc(OCCON4CCN(C)CC4)c(OC)cc23)ccc1Cl` [Compound 19], the IC50 against cSRC is 2 nM. Moreover, at BCR-ABL1 M351T, the IC50 came to 1 nM. Further, in data set [2], the “stability in hepatocytes, in words” value is reported as “good stability in human hepatocytes”; the amount remaining at 0.5 min amounted to 100%; the amount remaining at 0.5 h stood at 68.1%; the fraction remaining at 1 h was found to be 50.2%. The compound further returned an amount remaining at 2 h in data set [2] of 25.5%. Besides, in the data set with MDCKII-MDR1 cells, the “efflux (P-gp), in words” value is on record as “reduced efflux ratios” and the “permeability in MDCKII-MDR1 cells, in words” value was “markedly improved permeability”.

As to `COc1cc2c(Nc3ccc(Cl)c(OC)n3)c(C#N)cnc2cc1OCCON1CCN(C)CC1` [Compound 21, 4-((5-Chloro-6-methoxypyridin-2-yl)amino)-6-methoxy-7-(2-((4-methylpiperazin-1-yl)oxy)ethoxy)quinoline-3-carbonitrile], the “cSRC kinase activity, in words” value on cSRC is on record as “excellent activity”. Moreover, the “BCR-ABL1 kinase activity, in words” value in the data set on mutant BCR-ABL1 is given as “excellent activity”.

Regarding `Cc1nc(Nc2ncc(C(=O)Nc3c(C)cccc3Cl)s2)cc(N2CCN(CCO)CC2)n1` [Dasatinib, dasatinib], the “efflux transporter substrate (background)” value in data set [1] is listed as “P-gp substrates; also recorded: potent substrates for efflux transporters”. For the same compound, on hERG channel, the “hERG liability, in words (background)” value was “reduced affinity for the hERG ion channel”.

Regarding `CC(=O)N1CCN(c2ccc(OCC3COC(Cn4ccnc4)(c4ccc(Cl)cc4Cl)O3)cc2)CC1` (stereo not shown) [Ketoconazole], the “% Unbound” value in data set [3] was determined as 0.80%. The fraction unbound at 6 h, 5 µM in data set [3] (read-out: % Bound (converted)) was 0.008.

`Cc1cn(-c2cc(NC(=O)c3ccc(C)c(Nc4nccc(-c5cccnc5)n4)c3)cc(C(F)(F)F)c2)cn1` [Nilotinib, nilotinib]: on hERG channel, the “hERG liability, in words (background)” value is reported as “inhibition of the human Ether-b-go-go-Related Gene (hERG) potassium ion channel”.

On to `COc1ccc(CCN(C)CCCC(C#N)(c2ccc(OC)c(OC)c2)C(C)C)cc1OC` (stereo not shown) [Verapamil, reference compound], for which, in [4] (15 min), the amount remaining at […] came to 16.7%. In [4] (30 min), the share remaining at 0.5 h worked out at 4.39%. For the same compound, the amount remaining at 1 h in data set [4] (60 min) was 1.24%. Further, in data set [2], the amount remaining at 0.5 h was 35.6%, the share remaining at 1 h is 17.7% and the share remaining at 2 h turned out to be 4.83%.

The values are drawn from patent US20260297031A1, “HYDROXYLAMINE-BASED BCR-ABL1 INHIBITORS FOR TREATMENT OF CANCER” (University of Georgia Research Foundation, Inc., priority 2023, published 2026).
